Assay [1] can be described thus: Inhibition of Yersinia pestis YopH using […] as substrate by spectrophotometry.
Assay [2] in a line: Selectivity for Yersinia pestis YopH over Cdc25A (unknown origin) at 5 nM.
Assay [3] in a line: Selectivity for Yersinia pestis YopH over TCPTP (unknown origin) at 5 nM.
Assay [4] is described as follows: Selectivity for Yersinia pestis YopH over CD45 (unknown origin) at 5 nM.
Assay [5] is described as follows: Selectivity for Yersinia pestis YopH over PTP1B (unknown origin) at 5 nM.
Assay [6] can be described thus: Selectivity for Yersinia pestis YopH over HePTP (unknown origin) at 5 nM.
A short description of assay [7]: Selectivity for Yersinia pestis YopH over VHR (unknown origin) at 5 nM.

The structures appear in SMILES notation.

As usually defined, the IC50 is the concentration needed to halve the response being measured. High values mean weaker potency, low ones greater potency. `O=C(CCCCNC(=O)c1cc(-c2ccc(O)c(C(=O)O)c2)cs1)Nc1nc2ccccc2s1`: the IC50 in assay [1] was determined as 39.5 µM.
The same measure, in the same setting: the result for `O=C(CCCCNC(=O)c1ccc(-c2ccc(O)c(C(=O)O)c2)s1)Nc1ccc(N2CCOCC2)cc1` reads above 200 µM; that for `O=C(CCCCNC(=O)c1ccc(-c2ccc(O)c(C(=O)O)c2)s1)Nc1nc(-c2ccccc2)cs1`, 11.1 µM.
In general, Ki refers to a measure of affinity in units of concentration, obtained from inhibition or displacement. Take `O=C(O)C1=CC(=C(c2ccc(O)c(C(=O)O)c2)c2ccc(O)c(C(=O)O)c2)C=CC1=O` [AURINTRICARBOXYLIC ACID]: the Selectivity ratio in assay [2], in assay [3], in assay [4], in assay [5], in assay [6] and in assay [7] was 6 each time. For the same compound, the affinity in assay [1], expressed as Ki, was 5 nM.
For `O=C(CCCCNC(=O)c1cc(-c2ccc(O)c(C(=O)O)c2)on1)Nc1ccc(N2CCOCC2)cc1`, half-maximal inhibition in assay [1] (IC50) required 63 µM. This counts as double-digit micromolar.
Compound `O=C(CCCCNC(=O)c1cc(-c2ccc(O)c(C(=O)O)c2)cs1)Nc1nc(-c2ccccc2)cs1` displayed an IC50 in assay [1] of 44.2 µM.
Compound `O=C(CCCCNC(=O)c1ccc(-c2ccc(O)c(C(=O)O)c2)s1)NCc1ccccc1` yielded an IC50 in assay [1] above 200 µM.
Compound `O=C(CCCCNC(=O)c1ccc(-c2ccc(O)c(C(=O)O)c2)s1)Nc1nc2ccccc2s1` came in with an IC50 in assay [1] above 20 µM.
Still for that read-out and setting: the same measure for `O=C(CCCCNC(=O)c1cc(-c2ccc(O)c(C(=O)O)c2)on1)Nc1nc(-c2ccccc2)cs1`: 23 µM; for `O=C(CCNC(=O)c1ccc(-c2ccc(O)c(C(=O)O)c2)s1)Nc1nc(-c2ccccc2)cs1`: above 50 µM.

The values above are taken from ChEMBL document CHEMBL3352713, “A new class of salicylic acid derivatives for inhibiting YopH of Yersinia pestis” (Bioorg Med Chem, 2014).
